Here are results for five compounds from article PMC3192407, “Both Basic and Acidic Amino Acid Residues of IpTxa Are Involved in Triggering Substate of RyR1” (Journal of Biomedicine and Biotechnology, 2011).

Where two headings read alike, the source gives them in different places. Bridge positions count the residues as written; N and C are the ends. Peptide text beside a SMILES is read from it.

The target of one test is T1, purified rabbit RyR1 (Oryctolagus cuniculus, UniProt P11716).
T1 construct: we added IpTxa to purified RyR1 incorporated into planar lipid bilayers; from tissue; host or cells: rabbit skeletal muscle (inferred; purified from HSR)
Briefly: Planar lipid bilayer single-channel recording, purified RyR1. The class given is biochemical. Particulars: for EC50: purified RyR1, toxin cis, 6-100 nM, -30 mV, 10 μM Ca^2+, Hill fit, means ± SE of 4–10 experiments, read-out: EC50 for Psubstate; for EC50 for Psubstate compared with wild type (in words): purified RyR1, 6-100 nM. As for the experimental part: (§1) Single-channel recordings of rabbit skeletal RyR1 incorporated into planar lipid bilayers were carried out as described previously. Lipid bilayers, consisting of brain tissue phosphatidylethanolamine and phosphatidylserine (1 : 1) in decane (20 mg/mL) were formed across a hole of approximately 200 μm diameter. Thinning of the bilayer was monitored by bilayer capacitance. The basic composition of the cis/trans solution consisted of 300 mM cesium methanesulfonate, 10 mM Tris/Hepes (pH 7.2), 2 mM EGTA, and 1.998 mM CaCl2 ([Ca^2+]free = 10 μM). [Ca^2+]free was calculated using the “Chelator” program (Theo Schoenmaker). Cs^+ was selected as the charge carrier to ensure precise control of free [Ca^2+], to increase the channel conductance, and to avoid any contribution from potassium channels present in the SR membrane. Chloride channels were inhibited by using the impermeant anion methanesulfonate. Incorporation of ion channels was carried out as described by Miller and Racker and confirmed by recording the characteristically high single-channel conductance of RyRs. The trans side was maintained at ground and the cis side was clamped at −30 mV relative to the ground. After addition of the IpTxa to the cis chamber, the single channel data were collected at −30 mV for 2–5 min. […] Recordings were filtered with an 8-pole low-pass Bessel filter at 1 kHz and digitalized through a Digidata 1200 series interface (Axon Instruments). Data acquisition and analysis were done with the Axon Instruments software, pClamp v7.0.
(§2) Data were analyzed using the Hill equation described previously:
(§3) (1) Psubstate=(Psubstate, max )/[1+(EC50/[IpTxa])^nH] orPo=(Po, max )/[1+(EC50/[IpTxa])^nH], where (Po, max ) is the Po observed at saturating concentrations of IpTxa, EC50 is the IpTxa concentration for which 50% of Po, max is obtained and nH is the Hill coefficient. Also, Psubstate, max is the Psubstate observed at saturating concentrations of IpTxa, EC50 is the IpTxa concentration for which 50% of Psubstate, max is obtained, and nH is the Hill coefficient. The probability of full open state of the channel (Po) was defined as the ratio of the time spent in the open state to the total time exclusive of time spent in the substate. The probability to obtain substate (Psubstate) was calculated as the time spent in the substate divided by a given total recording time. The durations of the substate were obtained by manual positioning of the cursors and constructing all point histograms. Mean duration of substate was measured by total substate time divided by total substate frequencies.
(§4) Results are given as means ± SE. Significant differences were analyzed using Student's t-test. Differences were considered to be significant when P < 0.05. The fitting of the data to the graphs were carried out using the software, Origin v7.
To determine whether the activation of native RyR1 in SR by IpTxa was due to a direct activation of RyR1 or due to an indirect activation through other proteins associated to RyR1, we added IpTxa to purified RyR1 incorporated into planar lipid bilayers (Figure 3(a)). […] Purity of RyR1 at the final purification step was verified by Coomassie blue staining (Supplementary Figure 2).
Figure 3 Effects of IpTxa on purified rabbit RyR1 incorporated in planar lipid bilayers. (a) Single channel activity of purified RyR1 incorporated in planar lipid bilayers at 10 μM Ca^2+ with or without IpTxa (6–100 nM) was recorded. Single channel currents are shown as downward deflections from the closed level (indicated by c). The holding potential was −30 mV. (b) The plot of Po of purified RyR1 versus various concentrations of IpTxa is shown. (c) The plot of Psubstate of purified RyR1 versus various concentrations of IpTxa is shown. The results are shown as the means ± SE for 7 experiments. […]

In test [1] the target is T2, rabbit skeletal RyR1 (native RyR1 in HSR) (Oryctolagus cuniculus, UniProt P11716).
T2 construct: tested using native RyR1 in rabbit skeletal HSR; from tissue; host or cells: rabbit fast-twitch back and leg muscles (heavy SR vesicles)
Kind of test: Planar lipid bilayer single-channel recording, native RyR1 in HSR. It counts as biochemical. Particulars: -30 mV. The procedure:
A heavy fraction of fragmented SR vesicles (HSR) containing junctional SR was prepared from rabbit fast-twitch back and leg muscles as described previously.
as §1, §2, §3, §4
To examine how IpTxa modifies RyR1 activity, RyR1 in HSR incorporated in planar lipid bilayers was tested in the presence or absence of synthetic wild-type IpTxa. The chamber solutions for both cis (cytosolic) and trans (luminal) sides included 300 mM cesium methanesulfonate and 10 mM Tris-Hepes (pH 7.2). 10 μM free Ca^2+ was added to the cis side to activate the incorporated RyR1. After an addition of IpTxa to the cis chamber, the single channel gating properties were recorded at a holding potential of −30 mV for over 2 min at each toxin concentration. […] To examine the effects of IpTxa on full open state, we calculated the probability to obtain the full open state (Po) as the time spent in the open state divided by the total time exclusive of the time spent in the substate. The time for recorded Po was in the range of 30 s–2 min. […] The steady-state Po was 0.18 ± 0.02 at 10 μM Ca^2+. […]

The mark [2] stands for this setting: native RyR1 in SR, toxin cis, 6-100 nM, [Ca^2+]free 10 μM, pH 7.2, Hill fit, means ± SE of 3–9 experiments, read-out: EC50 for Psubstate.

T2 sequence (P11716 whole entry): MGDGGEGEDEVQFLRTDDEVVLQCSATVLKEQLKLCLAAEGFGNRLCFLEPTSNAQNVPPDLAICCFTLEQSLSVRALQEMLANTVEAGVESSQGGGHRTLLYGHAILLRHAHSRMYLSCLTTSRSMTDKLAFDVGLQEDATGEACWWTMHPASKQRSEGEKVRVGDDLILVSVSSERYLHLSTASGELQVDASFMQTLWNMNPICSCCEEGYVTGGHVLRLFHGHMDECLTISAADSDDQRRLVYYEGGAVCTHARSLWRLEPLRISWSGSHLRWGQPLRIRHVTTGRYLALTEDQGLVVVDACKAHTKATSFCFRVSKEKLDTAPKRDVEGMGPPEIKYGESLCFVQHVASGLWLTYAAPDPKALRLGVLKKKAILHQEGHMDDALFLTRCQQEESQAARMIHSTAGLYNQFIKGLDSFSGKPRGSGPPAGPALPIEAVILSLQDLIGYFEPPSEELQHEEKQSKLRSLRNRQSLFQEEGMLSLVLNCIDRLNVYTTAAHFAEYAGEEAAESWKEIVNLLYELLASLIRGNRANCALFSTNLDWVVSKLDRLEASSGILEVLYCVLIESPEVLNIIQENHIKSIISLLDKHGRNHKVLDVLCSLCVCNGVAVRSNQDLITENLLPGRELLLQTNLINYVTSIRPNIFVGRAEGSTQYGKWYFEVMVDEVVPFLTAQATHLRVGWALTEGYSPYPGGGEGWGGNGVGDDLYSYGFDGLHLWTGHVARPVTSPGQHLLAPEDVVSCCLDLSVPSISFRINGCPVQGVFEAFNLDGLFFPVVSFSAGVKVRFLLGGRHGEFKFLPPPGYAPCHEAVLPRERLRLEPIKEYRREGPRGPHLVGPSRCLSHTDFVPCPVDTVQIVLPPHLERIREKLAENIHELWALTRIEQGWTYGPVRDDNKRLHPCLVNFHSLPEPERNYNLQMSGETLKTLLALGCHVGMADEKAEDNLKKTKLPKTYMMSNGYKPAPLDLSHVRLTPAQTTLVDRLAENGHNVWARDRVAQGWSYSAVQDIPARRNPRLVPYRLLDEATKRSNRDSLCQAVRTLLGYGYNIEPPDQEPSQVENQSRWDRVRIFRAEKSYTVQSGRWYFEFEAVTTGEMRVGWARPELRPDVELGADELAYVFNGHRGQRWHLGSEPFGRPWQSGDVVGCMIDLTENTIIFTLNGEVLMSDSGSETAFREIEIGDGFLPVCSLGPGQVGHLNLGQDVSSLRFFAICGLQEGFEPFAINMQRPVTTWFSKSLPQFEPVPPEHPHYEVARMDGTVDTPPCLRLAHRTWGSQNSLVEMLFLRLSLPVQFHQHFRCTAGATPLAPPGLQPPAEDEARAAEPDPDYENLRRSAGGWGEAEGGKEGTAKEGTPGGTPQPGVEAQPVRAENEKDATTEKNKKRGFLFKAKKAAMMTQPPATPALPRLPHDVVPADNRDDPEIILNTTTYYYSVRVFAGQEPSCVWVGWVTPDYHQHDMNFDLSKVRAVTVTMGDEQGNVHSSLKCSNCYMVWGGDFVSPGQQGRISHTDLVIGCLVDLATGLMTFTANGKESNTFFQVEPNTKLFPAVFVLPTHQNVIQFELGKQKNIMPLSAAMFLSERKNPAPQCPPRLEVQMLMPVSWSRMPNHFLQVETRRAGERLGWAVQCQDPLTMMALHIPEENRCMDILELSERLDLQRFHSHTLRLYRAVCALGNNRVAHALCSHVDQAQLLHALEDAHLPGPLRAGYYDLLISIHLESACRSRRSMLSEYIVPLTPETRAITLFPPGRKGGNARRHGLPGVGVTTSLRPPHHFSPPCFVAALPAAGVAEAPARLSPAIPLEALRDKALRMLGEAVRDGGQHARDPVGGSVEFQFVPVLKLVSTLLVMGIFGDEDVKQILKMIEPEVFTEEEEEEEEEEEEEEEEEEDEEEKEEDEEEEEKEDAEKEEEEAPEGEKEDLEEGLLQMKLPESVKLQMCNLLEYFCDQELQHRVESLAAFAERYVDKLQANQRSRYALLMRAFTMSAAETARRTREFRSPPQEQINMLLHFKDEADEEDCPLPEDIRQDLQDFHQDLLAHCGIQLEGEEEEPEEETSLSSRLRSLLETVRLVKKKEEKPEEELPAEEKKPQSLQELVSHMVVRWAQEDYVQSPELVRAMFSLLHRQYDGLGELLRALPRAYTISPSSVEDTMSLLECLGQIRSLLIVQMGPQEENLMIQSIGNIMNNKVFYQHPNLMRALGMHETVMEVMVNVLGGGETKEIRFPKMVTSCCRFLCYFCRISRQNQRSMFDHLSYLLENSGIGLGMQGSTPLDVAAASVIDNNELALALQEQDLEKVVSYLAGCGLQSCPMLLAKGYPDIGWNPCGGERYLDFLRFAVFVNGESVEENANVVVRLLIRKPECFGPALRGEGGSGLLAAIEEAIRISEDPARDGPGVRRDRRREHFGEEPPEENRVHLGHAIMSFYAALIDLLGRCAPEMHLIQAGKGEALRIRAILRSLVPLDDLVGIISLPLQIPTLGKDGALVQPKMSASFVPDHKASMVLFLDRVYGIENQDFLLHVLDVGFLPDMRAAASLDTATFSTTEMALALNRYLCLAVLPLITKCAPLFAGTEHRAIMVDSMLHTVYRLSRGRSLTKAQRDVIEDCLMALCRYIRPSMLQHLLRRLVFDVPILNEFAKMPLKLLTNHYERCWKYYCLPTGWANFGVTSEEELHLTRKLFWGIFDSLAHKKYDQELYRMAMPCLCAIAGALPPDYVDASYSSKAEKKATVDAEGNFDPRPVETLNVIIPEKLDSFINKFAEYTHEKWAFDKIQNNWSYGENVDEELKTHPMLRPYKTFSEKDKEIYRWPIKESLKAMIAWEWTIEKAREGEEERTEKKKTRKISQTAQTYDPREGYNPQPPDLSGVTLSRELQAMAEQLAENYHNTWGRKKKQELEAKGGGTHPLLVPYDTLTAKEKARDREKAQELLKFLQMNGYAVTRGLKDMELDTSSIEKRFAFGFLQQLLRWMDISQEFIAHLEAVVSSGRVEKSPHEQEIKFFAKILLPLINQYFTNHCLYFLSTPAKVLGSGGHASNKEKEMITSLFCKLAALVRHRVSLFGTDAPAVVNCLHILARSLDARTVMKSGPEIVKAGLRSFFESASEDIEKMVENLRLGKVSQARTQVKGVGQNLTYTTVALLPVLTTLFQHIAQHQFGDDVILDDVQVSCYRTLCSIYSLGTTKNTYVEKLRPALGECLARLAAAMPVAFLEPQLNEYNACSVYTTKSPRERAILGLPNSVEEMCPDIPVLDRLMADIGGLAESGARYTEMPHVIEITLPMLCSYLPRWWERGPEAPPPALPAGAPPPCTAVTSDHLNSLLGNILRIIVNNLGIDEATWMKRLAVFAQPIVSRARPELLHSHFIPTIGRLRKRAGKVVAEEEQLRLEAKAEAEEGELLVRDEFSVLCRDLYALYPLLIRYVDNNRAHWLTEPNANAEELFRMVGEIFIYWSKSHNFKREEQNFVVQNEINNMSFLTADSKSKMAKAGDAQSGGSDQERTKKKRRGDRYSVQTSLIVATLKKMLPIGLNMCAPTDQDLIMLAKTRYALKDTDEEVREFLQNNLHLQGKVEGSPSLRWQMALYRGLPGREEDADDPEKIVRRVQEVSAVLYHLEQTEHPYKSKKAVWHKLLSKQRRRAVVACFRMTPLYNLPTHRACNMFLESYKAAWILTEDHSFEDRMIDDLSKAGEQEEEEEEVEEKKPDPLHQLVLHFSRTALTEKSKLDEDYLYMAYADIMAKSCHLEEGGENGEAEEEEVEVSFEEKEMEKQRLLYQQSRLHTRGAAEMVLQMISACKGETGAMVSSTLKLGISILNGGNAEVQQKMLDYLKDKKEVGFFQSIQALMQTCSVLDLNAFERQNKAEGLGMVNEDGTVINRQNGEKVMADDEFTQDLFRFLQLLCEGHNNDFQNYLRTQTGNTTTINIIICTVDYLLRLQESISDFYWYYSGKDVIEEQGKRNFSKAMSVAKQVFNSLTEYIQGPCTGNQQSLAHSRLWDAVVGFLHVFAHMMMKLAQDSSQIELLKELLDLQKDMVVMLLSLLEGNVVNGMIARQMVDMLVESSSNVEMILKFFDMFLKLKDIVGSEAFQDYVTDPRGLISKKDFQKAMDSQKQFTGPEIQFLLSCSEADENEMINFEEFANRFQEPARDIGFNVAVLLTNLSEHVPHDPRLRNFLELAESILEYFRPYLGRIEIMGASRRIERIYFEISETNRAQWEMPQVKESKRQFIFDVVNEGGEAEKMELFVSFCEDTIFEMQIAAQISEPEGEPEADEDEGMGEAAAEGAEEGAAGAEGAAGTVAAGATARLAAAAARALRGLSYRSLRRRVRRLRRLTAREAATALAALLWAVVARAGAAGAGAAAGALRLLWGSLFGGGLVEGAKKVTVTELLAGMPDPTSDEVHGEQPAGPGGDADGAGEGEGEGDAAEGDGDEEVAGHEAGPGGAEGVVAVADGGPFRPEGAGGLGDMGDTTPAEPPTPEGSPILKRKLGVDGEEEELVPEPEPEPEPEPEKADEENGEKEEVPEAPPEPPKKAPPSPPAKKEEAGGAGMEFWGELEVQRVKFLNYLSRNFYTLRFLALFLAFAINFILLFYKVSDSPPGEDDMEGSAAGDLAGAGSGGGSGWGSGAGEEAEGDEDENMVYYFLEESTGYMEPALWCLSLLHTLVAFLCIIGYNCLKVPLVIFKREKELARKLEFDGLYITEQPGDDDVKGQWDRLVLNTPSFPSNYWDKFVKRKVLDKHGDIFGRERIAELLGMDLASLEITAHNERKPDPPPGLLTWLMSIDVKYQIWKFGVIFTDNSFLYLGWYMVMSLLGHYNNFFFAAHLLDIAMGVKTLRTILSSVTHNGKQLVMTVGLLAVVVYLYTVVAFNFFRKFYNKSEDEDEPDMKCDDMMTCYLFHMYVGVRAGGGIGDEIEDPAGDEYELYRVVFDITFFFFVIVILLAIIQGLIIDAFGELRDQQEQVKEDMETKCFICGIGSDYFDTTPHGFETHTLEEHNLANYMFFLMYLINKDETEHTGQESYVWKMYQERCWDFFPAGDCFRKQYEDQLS
T1 sequence (P11716 whole entry): as above

A word on the EC50: it is the concentration needed to bring the measured effect to its halfway point. As for `CC(C)C[C@@H]1NC(=O)[C@H](Cc2c[nH]cn2)NC(=O)[C@@H]2CCCN2C(=O)[C@H](CC(C)C)NC(=O)[C@@H](NC(=O)[C@H](CC(=O)O)NC(=O)CN)CSSC[C@@H]2NC(=O)[C@@H]3CSSC[C@@H](C(=O)N[C@@H](CCCNC(=N)N)C(=O)O)NC(=O)[C@H](CCCNC(=N)N)NC(=O)[C@H](CCCCN)NC(=O)[C@H](CCC(=O)O)NC(=O)[C@H](C)NC(=O)[C@H](CC(N)=O)NC(=O)[C@H]([C@@H](C)O)NC(=O)CNC(=O)[C@H](CCCNC(=N)N)NC(=O)[C@H](CCCNC(=N)N)NC(=O)[C@H](CCCCN)NC(=O)[C@H](CSSC[C@H](NC(=O)[C@H](CCCNC(=N)N)NC(=O)[C@H](CCCCN)NC1=O)C(=O)N[C@@H](CCCCN)C(=O)N[C@@H](C)C(=O)N[C@@H](CC(=O)O)C(=O)N[C@@H](CC(N)=O)C(=O)N[C@@H](CC(=O)O)C(=O)N3)NC(=O)[C@H](CCCCN)NC(=O)[C@H](CCCCN)NC(=O)CNC2=O` [Wild type, Imperatoxin A] (H-GDCLPHLKRCKADNDCCGKKCKRRGTNAEKRCR-OH; disulfide 3-17, 10-21, 16-32), the EC50 on purified rabbit RyR1 is 17.1 ± 2.31 nM; in test [1] (native RyR1, toxin cis, 10 μM Ca^2+, Hill fit, means ± SE of ten experiments, read-out: EC50 for Po), 17.4 ± 4.67 nM; in test [1] (setting [2]) it was 23.3 ± 2.37 nM.
Regarding `CC(C)C[C@@H]1NC(=O)[C@H](Cc2c[nH]cn2)NC(=O)[C@@H]2CCCN2C(=O)[C@H](CC(C)C)NC(=O)[C@@H](NC(=O)[C@H](CC(=O)O)NC(=O)CN)CSSC[C@@H]2NC(=O)[C@@H]3CSSC[C@@H](C(=O)N[C@@H](CCCNC(=N)N)C(=O)O)NC(=O)[C@H](CCCNC(=N)N)NC(=O)[C@H](C)NC(=O)[C@H](CCC(=O)O)NC(=O)[C@H](C)NC(=O)[C@H](CC(N)=O)NC(=O)[C@H]([C@@H](C)O)NC(=O)CNC(=O)[C@H](CCCNC(=N)N)NC(=O)[C@H](CCCNC(=N)N)NC(=O)[C@H](CCCCN)NC(=O)[C@H](CSSC[C@H](NC(=O)[C@H](CCCNC(=N)N)NC(=O)[C@H](CCCCN)NC1=O)C(=O)N[C@@H](CCCCN)C(=O)N[C@@H](C)C(=O)N[C@@H](CC(=O)O)C(=O)N[C@@H](CC(N)=O)C(=O)N[C@@H](CC(=O)O)C(=O)N3)NC(=O)[C@H](CCCCN)NC(=O)[C@H](CCCCN)NC(=O)CNC2=O` [K30A] (H-GDCLPHLKRCKADNDCCGKKCKRRGTNAEARCR-OH; disulfide 3-17, 10-21, 16-32), on purified rabbit RyR1, the “EC50 for Psubstate compared with wild type (in words)” value is “without a significant change of EC50”. Besides, the EC50 at purified rabbit RyR1 stood at 15.7 ± 5.99 nM; in test [1] (setting [2]), 16.7 ± 2.86 nM.
Taken in the same sequence, the figures for `CC(C)C[C@@H]1NC(=O)[C@H](Cc2c[nH]cn2)NC(=O)[C@@H]2CCCN2C(=O)[C@H](CC(C)C)NC(=O)[C@@H](NC(=O)[C@H](CC(=O)O)NC(=O)CN)CSSC[C@@H]2NC(=O)[C@@H]3CSSC[C@@H](C(=O)N[C@@H](C)C(=O)O)NC(=O)[C@H](CCCNC(=N)N)NC(=O)[C@H](CCCCN)NC(=O)[C@H](CCC(=O)O)NC(=O)[C@H](C)NC(=O)[C@H](CC(N)=O)NC(=O)[C@H]([C@@H](C)O)NC(=O)CNC(=O)[C@H](CCCNC(=N)N)NC(=O)[C@H](CCCNC(=N)N)NC(=O)[C@H](CCCCN)NC(=O)[C@H](CSSC[C@H](NC(=O)[C@H](CCCNC(=N)N)NC(=O)[C@H](CCCCN)NC1=O)C(=O)N[C@@H](CCCCN)C(=O)N[C@@H](C)C(=O)N[C@@H](CC(=O)O)C(=O)N[C@@H](CC(N)=O)C(=O)N[C@@H](CC(=O)O)C(=O)N3)NC(=O)[C@H](CCCCN)NC(=O)[C@H](CCCCN)NC(=O)CNC2=O` [R33A] (H-GDCLPHLKRCKADNDCCGKKCKRRGTNAEKRCA-OH; disulfide 3-17, 10-21, 16-32) were “without a significant change of EC50”, 19.3 ± 1.05 nM and 16 ± 5.65 nM.
As to `CC(C)C[C@@H]1NC(=O)[C@H](Cc2c[nH]cn2)NC(=O)[C@@H]2CCCN2C(=O)[C@H](CC(C)C)NC(=O)[C@@H](NC(=O)[C@H](CC(=O)O)NC(=O)CN)CSSC[C@@H]2NC(=O)[C@@H]3CSSC[C@@H](C(=O)N[C@@H](CCCNC(=N)N)C(=O)O)NC(=O)[C@H](CCCNC(=N)N)NC(=O)[C@H](CCCCN)NC(=O)[C@H](CCC(=O)O)NC(=O)[C@H](C)NC(=O)[C@H](CC(N)=O)NC(=O)[C@H]([C@@H](C)O)NC(=O)CNC(=O)[C@H](CCCNC(=N)N)NC(=O)[C@H](CCCNC(=N)N)NC(=O)[C@H](CCCCN)NC(=O)[C@H](CSSC[C@H](NC(=O)[C@H](CCCNC(=N)N)NC(=O)[C@H](CCCCN)NC1=O)C(=O)N[C@@H](C)C(=O)N[C@@H](C)C(=O)N[C@@H](CC(=O)O)C(=O)N[C@@H](CC(N)=O)C(=O)N[C@@H](CC(=O)O)C(=O)N3)NC(=O)[C@H](CCCCN)NC(=O)[C@H](CCCCN)NC(=O)CNC2=O` [K11A] (H-GDCLPHLKRCAADNDCCGKKCKRRGTNAEKRCR-OH; disulfide 3-17, 10-21, 16-32), in test [1] (setting [2]), the EC50 came out at 21.8 ± 3.49 nM.
Same read-out and setting: as for `CC(C)C[C@@H]1NC(=O)[C@H](Cc2c[nH]cn2)NC(=O)[C@@H]2CCCN2C(=O)[C@H](CC(C)C)NC(=O)[C@@H](NC(=O)[C@H](CC(=O)O)NC(=O)CN)CSSC[C@@H]2NC(=O)[C@@H]3CSSC[C@@H](C(=O)N[C@@H](CCCNC(=N)N)C(=O)O)NC(=O)[C@H](CCCNC(=N)N)NC(=O)[C@H](CCCCN)NC(=O)[C@H](CCC(=O)O)NC(=O)[C@H](C)NC(=O)[C@H](CC(N)=O)NC(=O)[C@H]([C@@H](C)O)NC(=O)CNC(=O)[C@H](CCCNC(=N)N)NC(=O)[C@H](CCCNC(=N)N)NC(=O)[C@H](CCCCN)NC(=O)[C@H](CSSC[C@H](NC(=O)[C@H](CCCNC(=N)N)NC(=O)[C@H](CCCCN)NC1=O)C(=O)N[C@@H](CCCCN)C(=O)N[C@@H](C)C(=O)N[C@@H](C)C(=O)N[C@@H](CC(N)=O)C(=O)N[C@@H](CC(=O)O)C(=O)N3)NC(=O)[C@H](CCCCN)NC(=O)[C@H](CCCCN)NC(=O)CNC2=O` [D13A] (H-GDCLPHLKRCKAANDCCGKKCKRRGTNAEKRCR-OH; disulfide 3-17, 10-21, 16-32), the figure is 21.7 ± 7.92 nM.
